From patent US10407395B2, “Benzimidazole compound and medical use thereof” (Sumitomo Dainippon Pharma Co., Ltd., priority 2015, dated 2019) come the findings set out here.

Structures are written as SMILES. Read-outs that look alike come from different tables or passages of the source.

The assay has as its target human SCN9A (Nav 1.7) (Homo sapiens, UniProt Q15858). The assay is described as follows: Measurement of Na ion current (Nav 1.7) by automated patch clamp assay in cells stably-expressing human SCN9A. It is filed as cell-based. The note with it: read-out: Inhibitory rate (%) of Na ion current; for inhibition at 100 µM: compound concentration 100 μmol/L (footnoted examples). The procedure:
Measurement of Na Ion Current in Voltage-Dependent Na Channel Gene Expressed Cell Nav 1.7 current was measured by automated patch clamp assay using cells stably-expressing human SCN9A. Cells Stably-expressing Human SCN9A Tetracycline-induced cells stably-expressing SCN9A were obtained from ChanTest Corporation. […] Next day, the Na ion current was measured by automated patch clamp assay. Electrophysiologic Measurement of Na Ion Current The Na ion current was measured by automated patch clamp assay using the following extracellular solution and intracellular solution. […] The control of the stimulating pulse and the data acquisition were carried out using EPC10 amplifier and Patch Master Software (HEKA). Data were sampled at 10 kHz, and low-pass filtered at 3 kHz. All the measurements were carried out at room temperature. […] The inhibitory rate of the Na ion current by the test compounds was calculated according to the following calculating formula with the peak current value generated by the depolarizing pulse. […] The inhibitory rate of Na ion current by each Example Compound was evaluated.
(In general: In patch-clamp work, channel activity is measured electrically.)

The mark [1] stands for this setting: compound concentration 10 μmol/L, holding potential inactivating 50% Nav 1.7 channel (around −60 mV).
Setting [2] is: holding potential inactivating 50% Nav 1.7 channel (around −60 mV).

Chain of human SCN9A (Nav 1.7) (Q15858 whole entry): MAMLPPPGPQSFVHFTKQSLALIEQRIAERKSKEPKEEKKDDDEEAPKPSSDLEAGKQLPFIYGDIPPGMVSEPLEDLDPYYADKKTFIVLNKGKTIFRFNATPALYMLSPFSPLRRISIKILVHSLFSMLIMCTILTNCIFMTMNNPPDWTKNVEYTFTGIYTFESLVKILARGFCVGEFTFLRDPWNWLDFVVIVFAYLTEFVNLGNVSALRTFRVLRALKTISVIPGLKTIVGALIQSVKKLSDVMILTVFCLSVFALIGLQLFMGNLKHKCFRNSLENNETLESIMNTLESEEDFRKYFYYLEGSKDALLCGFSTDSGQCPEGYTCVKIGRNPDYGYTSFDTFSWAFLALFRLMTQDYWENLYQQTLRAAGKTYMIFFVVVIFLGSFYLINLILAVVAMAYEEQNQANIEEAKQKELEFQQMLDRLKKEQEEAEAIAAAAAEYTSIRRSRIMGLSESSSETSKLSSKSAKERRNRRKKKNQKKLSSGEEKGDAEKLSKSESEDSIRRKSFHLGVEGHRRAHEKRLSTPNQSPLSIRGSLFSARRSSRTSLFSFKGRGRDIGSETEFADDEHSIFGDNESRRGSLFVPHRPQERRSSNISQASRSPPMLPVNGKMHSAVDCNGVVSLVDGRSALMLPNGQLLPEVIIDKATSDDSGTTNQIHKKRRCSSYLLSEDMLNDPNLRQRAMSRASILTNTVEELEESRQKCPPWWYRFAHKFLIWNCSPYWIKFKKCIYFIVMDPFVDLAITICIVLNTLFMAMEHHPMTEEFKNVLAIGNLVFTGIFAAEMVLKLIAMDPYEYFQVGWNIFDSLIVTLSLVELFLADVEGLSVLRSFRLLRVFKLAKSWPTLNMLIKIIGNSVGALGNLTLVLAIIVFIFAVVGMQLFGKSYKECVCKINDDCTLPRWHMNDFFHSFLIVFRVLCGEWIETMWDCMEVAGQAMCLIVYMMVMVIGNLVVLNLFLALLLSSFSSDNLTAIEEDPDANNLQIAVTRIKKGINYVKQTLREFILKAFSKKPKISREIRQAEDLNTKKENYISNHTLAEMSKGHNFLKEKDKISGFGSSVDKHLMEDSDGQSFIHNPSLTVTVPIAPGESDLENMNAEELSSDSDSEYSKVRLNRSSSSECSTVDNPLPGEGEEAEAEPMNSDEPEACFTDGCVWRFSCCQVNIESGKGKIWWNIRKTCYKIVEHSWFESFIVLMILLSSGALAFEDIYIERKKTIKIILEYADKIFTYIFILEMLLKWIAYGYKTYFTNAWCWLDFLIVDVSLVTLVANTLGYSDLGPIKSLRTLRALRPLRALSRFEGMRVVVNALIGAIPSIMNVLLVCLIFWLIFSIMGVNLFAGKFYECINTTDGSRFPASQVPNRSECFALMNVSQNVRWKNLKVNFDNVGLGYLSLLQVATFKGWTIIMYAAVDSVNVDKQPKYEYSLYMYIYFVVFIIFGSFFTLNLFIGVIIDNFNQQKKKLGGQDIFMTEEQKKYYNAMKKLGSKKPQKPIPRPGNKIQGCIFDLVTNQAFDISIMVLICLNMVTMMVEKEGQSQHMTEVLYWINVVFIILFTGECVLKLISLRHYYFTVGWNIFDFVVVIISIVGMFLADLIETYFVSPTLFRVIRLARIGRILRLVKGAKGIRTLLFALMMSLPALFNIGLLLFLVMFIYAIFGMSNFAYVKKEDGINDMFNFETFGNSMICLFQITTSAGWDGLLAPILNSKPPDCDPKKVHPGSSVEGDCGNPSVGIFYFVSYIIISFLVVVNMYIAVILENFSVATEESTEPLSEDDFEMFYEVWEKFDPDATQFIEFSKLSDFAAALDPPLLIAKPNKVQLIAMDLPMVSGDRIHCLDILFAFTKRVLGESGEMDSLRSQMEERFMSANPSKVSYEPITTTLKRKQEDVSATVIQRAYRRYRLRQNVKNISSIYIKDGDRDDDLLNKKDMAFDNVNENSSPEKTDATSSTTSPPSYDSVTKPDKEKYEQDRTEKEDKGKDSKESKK

In the case of `Fc1ccc(Oc2ccc3ncn(CC4CCCO4)c3c2)cc1` (stereo not drawn) [Example 2, 6-(4-fluorophenoxy)-1-(tetrahydrofuran-2-ylmethyl)-1H-benzimidazole], the inhibition at 10 µM under setting [1] came out at 85%.

For `CC(C)OCCn1cnc2ccc(Oc3ccc(F)cc3)cc21` [Example 3, 6-(4-fluorophenoxy)-1-[2-(propan-2-yloxy)ethyl]-1H-benzimidazole], the inhibition at 10 µM under setting [1] is 65%.

In the case of `Fc1ccc(Oc2ccc3ncn(CCOC4CCCC4)c3c2)cc1` [Example 4, 1-[2-(cyclopentyloxy)ethyl]-6-(4-fluorophenoxy)-1H-benzimidazole], the inhibition at 10 µM under setting [1] amounted to 52%.

Consider `CC(C)(O)Cn1cnc2ccc(-c3ccc(F)cc3)cc21` [Example 5, 1-[6-(4-fluorophenyl)-1H-benzimidazol-1-yl]-2-methylpropan-2-ol], for which the inhibition at 10 µM under setting [1] came out at 39%.

For `Fc1ccc(-c2ccc3ncn(CC4CCCO4)c3c2)cc1` (stereo not drawn) [Example 6], under setting [1], the inhibition at 10 µM stood at 41%.

Turning to `FC(F)(F)c1ccc(-c2ccc3ncn(CC4CCCO4)c3c2)cc1` (stereo not drawn) [Example 7, 1-(tetrahydrofuran-2-ylmethyl)-6-[4-(trifluoromethyl)phenyl]-1H-benzimidazole], under setting [1], the inhibition at 10 µM is 67%.

For `FC(F)(F)c1ccc(-c2ccc3ncn(CC4CCCO4)c3c2)nc1` (stereo not drawn) [Example 8], the inhibition at 10 µM under setting [1] came out at 32%.

`CC(C)(O)Cn1cnc2ccc(-c3ccc(C(F)(F)F)cc3)cc21` [Example 9, 2-methyl-1-{6-[4-(trifluoromethyl)phenyl]-1H-benzimidazol-1-yl}propan-2-ol]: the inhibition at 10 µM under setting [1] came to 77%.

On to `FC(F)(F)c1ccc(-c2ccc3ncn(CCOC4CCCC4)c3c2)cc1` [Example 10, 1-[2-(cyclopentyloxy)ethyl]-6-[4-(trifluoromethyl)phenyl]-1H-benzimidazole], for which the inhibition at 10 µM under setting [1] turned out to be 52%.

As for `CC(C)(O)Cn1cnc2ccc(-c3ccc(C(F)(F)F)cn3)cc21` [Example 11, 2-methyl-1-{6-[5-(trifluoromethyl)pyridin-2-yl]-1H-benzimidazol-1-yl}propan-2-ol], under setting [1], the inhibition at 10 µM came out at 75%.

As for `FC(F)(F)c1ccc(-c2ccc3ncn(CCOC4CCCC4)c3c2)nc1` [Example 12, 1-[2-(cyclopentyloxy)ethyl]-6-[5-(trifluoromethyl)pyridin-2-yl]-1H-benzimidazole], the inhibition at 10 µM under setting [1] amounted to 58%.

As to `CC(C)(O)Cn1cnc2ccc(Oc3ccccc3)cc21` [Example 13, 2-methyl-1-(6-phenoxy-1H-benzimidazol-1-yl)propan-2-ol], the inhibition at 10 µM under setting [1] stood at 25%.

As to `Cc1ccc(Oc2ccc3ncn(CC(C)(C)O)c3c2)cc1` [Example 14, 2-methyl-1-[6-(4-methylphenoxy)-1H-benzimidazol-1-yl]propan-2-ol], the inhibition at 10 µM was 68%.

`CC(C)(O)Cn1cnc2ccc(Oc3ccc(C(F)(F)F)cc3)cc21` [Example 15, 2-methyl-1-{6-[4-(trifluoromethyl)phenoxy]-1H-benzimidazol-1-yl}propan-2-ol]: the inhibition at 10 µM under setting [1] is 57%.

For `CC(C)(O)Cn1cnc2ccc(Oc3ccc(OC(F)(F)F)cc3)cc21` [Example 22, 2-methyl-1-{6-[4-(trifluoromethoxy)phenoxy]-1H-benzimidazol-1-yl}propan-2-ol], the inhibition at 10 µM under setting [1] came to 73%.

For the compound `Cc1ccc(Oc2ccc3ncn(CC(C)(C)O)c3c2)cn1` [Example 24, 2-methyl-1-{6-[(6-methylpyridin-3-yl)oxy]-1H-benzimidazol-1-yl}propan-2-ol], under setting [1], the inhibition at 10 µM is 56%.

Consider `CC(C)(O)Cn1cnc2ccc(Oc3ccc(C(F)(F)F)nc3)cc21` [Example 25, 2-methyl-1-(6-{[6-(trifluoromethyl)pyridin-3-yl]oxy}-1H-benzimidazol-1-yl)propan-2-ol], for which the inhibition at 10 µM under setting [1] is 72%.

As for `CC(C)(O)Cn1cnc2cc(Oc3cccc(C(F)(F)F)n3)ccc21` [Example 43, 2-methyl-1-(5-{[6-(trifluoromethyl)pyridin-2-yl]oxy}-1H-benzimidazol-1-yl)propan-2-ol], the inhibition at 10 µM under setting [1] turned out to be 20%.

Take `CC(C)(O)Cn1cnc2cc(Oc3cnc(C(F)(F)F)cn3)ccc21` [Example 51, 2-methyl-1-(5-{[5-(trifluoromethyl)pyrazin-2-yl]oxy}-1H-benzimidazol-1-yl)propan-2-ol]: the inhibition at 10 µM under setting [1] was 44%.

Take `CC(C)(O)Cn1cnc2cc(Oc3ncc(C(F)(F)F)cn3)ccc21` [Example 52, 2-methyl-1-(5-{[5-(trifluoromethyl)pyrimidin-2-yl]oxy}-1H-benzimidazol-1-yl)propan-2-ol]: the inhibition at 10 µM under setting [1] is 46%.

Consider `CC(C)(O)Cn1cnc2cc(Oc3ncc(C(F)(F)F)cc3F)ccc21` [Example 53, 1-(5-{[3-fluoro-5-(trifluoromethyl)pyridin-2-yl]oxy}-1H-benzimidazol-1-yl)-2-methylpropan-2-ol], for which the inhibition at 10 µM under setting [1] was found to be 69%.

Consider `CC(C)(O)Cn1cnc2cc(Oc3ncc(Cl)cc3F)ccc21` [Example 54, 1-{5-[(5-chloro-3-fluoropyridin-2-yl)oxy]-1H-benzimidazol-1-yl}-2-methylpropan-2-ol], for which the inhibition at 10 µM under setting [1] amounted to 62%.

For the compound `OC1(Cn2cnc3ccc(Oc4ccc(C(F)(F)F)cn4)cc32)CCOCC1` [Example 55], under setting [1], the inhibition at 10 µM was 37%.

As for `OC1(Cn2cnc3ccc(Oc4ccc(C(F)(F)F)cn4)cc32)COC1` [Example 56, 3-[(6-{[5-(trifluoromethyl)pyridin-2-yl]oxy}-1H-benzimidazol-1-yl)methyl]oxetan-3-ol], under setting [1], the inhibition at 10 µM amounted to 45%.

Consider `OC1(Cn2cnc3ccc(Oc4ccc(C(F)(F)F)cn4)cc32)CC1` [Example 57], for which the inhibition at 10 µM under setting [1] worked out at 47%.

As to `OC1(Cn2cnc3ccc(Oc4ccc(C(F)(F)F)cn4)cc32)CCC1` [Example 58, 1-[(6-{[5-(trifluoromethyl)pyridin-2-yl]oxy}-1H-benzimidazol-1-yl)methyl]cyclobutanol], the inhibition at 10 µM under setting [1] stood at 48%.

Turning to `CC(C)(O)Cn1cnc2ccc(Oc3ccc(CC(F)(F)F)cn3)cc21` [Example 60, 2-methyl-1-(6-{[5-(2,2,2-trifluoroethyl)pyridin-2-yl]oxy}-1H-benzimidazol-1-yl)propan-2-ol], the inhibition at 10 µM under setting [1] came to 52%.

With `OC1(Cn2cnc3ccc(Oc4ccc(F)cc4)cc32)COC1` [Example 90], the inhibition at 10 µM under setting [1] amounted to 15%.

On to `OC1(Cn2cnc3ccc(Oc4ccc(Cl)cc4)cc32)COC1` [Example 91], for which the inhibition at 10 µM under setting [1] is 24%.

As for `Cc1ccc(Oc2ccc3ncn(CC4(O)COC4)c3c2)cc1` [Example 92], under setting [1], the inhibition at 10 µM worked out at 16%.

`OC1(Cn2cnc3ccc(Oc4ccc(C(F)(F)F)cc4)cc32)COC1` [Example 93, 3-({6-[4-(trifluoromethyl)phenoxy]-1H-benzimidazol-1-yl}methyl)oxetan-3-ol]: under setting [1], the inhibition at 10 µM was found to be 42%.

With `OC1(Cn2cnc3ccc(Oc4cccc(F)c4)cc32)COC1` [Example 95], the inhibition at 100 µM under setting [2] came to 66%.

`OC1(Cn2cnc3ccc(Oc4ccc(C(F)(F)F)nc4)cc32)COC1` [Example 96]: the inhibition at 100 µM under setting [2] is 32%.

Turning to `CC(C)(O)CCn1cnc2ccc(Oc3ccc(OC(F)(F)F)cc3)cc21` [Example 97], under setting [1], the inhibition at 10 µM was found to be 83%.

As to `CC(C)(O)CCn1cnc2ccc(Oc3cccc(F)c3)cc21` [Example 98], the inhibition at 10 µM under setting [1] is 25%.

Consider `Cc1ccc(Oc2ccc3ncn(CCC(C)(C)O)c3c2)cc1` [Example 99], for which, under setting [1], the inhibition at 10 µM was determined as 12%.

For `CC(C)(O)CCn1cnc2ccc(Oc3ccc(F)cc3)cc21` [Example 100], the inhibition at 10 µM under setting [1] was 10%.

Regarding `CC(C)(O)CCn1cnc2ccc(Oc3ccc(C(F)(F)F)cc3)cc21` [Example 102], the inhibition at 10 µM under setting [1] stood at 59%.

`CC(C)(O)CCn1cnc2ccc(Oc3ccc(C(F)(F)F)nc3)cc21` [Example 103]: the inhibition at 10 µM under setting [1] came out at 10%.

For the compound `CC(C)(O)Cn1cnc2ccc(Oc3ccc(CC(F)(F)F)cc3)cc21` [Example 104], the inhibition at 10 µM under setting [1] was 57%.

Regarding `OC1(Cn2cnc3ccc(Oc4ccc(CC(F)(F)F)cc4)cc32)COC1` [Example 105], under setting [1], the inhibition at 10 µM was 38%.

For `OC1(Cn2cnc3ccc(Oc4ccc(Cl)cc4Cl)cc32)COC1` [Example 106], the inhibition at 10 µM under setting [1] was 50%.

On to `OC1(Cn2cnc3ccc(Oc4ccc(Cl)c(Cl)c4)cc32)COC1` [Example 107], for which the inhibition at 10 µM under setting [1] was 51%.

In the case of `OC1(Cn2cnc3ccc(Oc4ccc(Cl)cc4F)cc32)COC1` [Example 109], under setting [1], the inhibition at 10 µM stood at 30%.

On to `OC1(Cn2cnc3ccc(Oc4ccc(F)cc4Cl)cc32)COC1` [Example 110, 3-{[6-(2-chloro-4-fluorophenoxy)-1H-benzimidazol-1-yl]methyl}oxetan-3-ol], for which the inhibition at 10 µM under setting [1] amounted to 58%.

As to `OC1(Cn2cnc3ccc(Oc4cc(Cl)cc(Cl)c4)cc32)COC1` [Example 111], the inhibition at 10 µM under setting [1] came to 52%.

Consider `OC1(Cn2cnc3ccc(Oc4cc(Cl)ccc4Cl)cc32)COC1` [Example 112], for which the inhibition at 10 µM under setting [1] worked out at 39%.

`C[C@]1(O)C[C@@H](n2cnc3ccc(Oc4ccc(C(F)(F)F)cc4)cc32)C1` [Example 113]: the inhibition at 10 µM under setting [1] turned out to be 68%.

Regarding `OC1(Cn2cnc3ccc(Oc4ccc5scnc5c4)cc32)COC1` [Example 114], under setting [1], the inhibition at 10 µM was 26%.

Turning to `OC1(Cn2cnc3ccc(Oc4ccc5ncccc5c4)cc32)COC1` [Example 115], the inhibition at 10 µM under setting [1] worked out at 31%.

With `CC(C)(CO)n1cnc2ccc(Oc3ccc(C(F)(F)F)cn3)cc21` [Example 116], the inhibition at 10 µM under setting [1] came to 33%.
